According to PubChem BioAssay (NCI):
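GI50 is the concentration that inhibits growth by half. At the TGI there is no net growth.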

Tests used:
Experiment in all cases: NCI-60 cell line screen, 384-well format
HL-60(TB) leukemia = test system: HL-60(TB) leukemia
OVCAR-5 ovarian = test system: OVCAR-5 ovarian
LOX IMVI melanoma = test system: LOX IMVI melanoma
SNB-19 CNS = test system: SNB-19 CNS
HCC-2998 colon = test system: HCC-2998 colon
MDA-MB-435 melanoma = test system: MDA-MB-435 melanoma
SK-MEL-5 melanoma = test system: SK-MEL-5 melanoma
UACC-62 melanoma = test system: UACC-62 melanoma
OVCAR-4 ovarian = test system: OVCAR-4 ovarian
NCI/ADR-RES ovarian = test system: NCI/ADR-RES ovarian
K-562 leukemia = test system: K-562 leukemia
NCI-H226 lung = test system: NCI-H226 lung
SK-MEL-28 melanoma = test system: SK-MEL-28 melanoma
SN12C renal = test system: SN12C renal
PC-3 prostate = test system: PC-3 prostate
MCF7 breast = test system: MCF7 breast
IGROV1 ovarian = test system: IGROV1 ovarian
SNB-75 CNS = test system: SNB-75 CNS
M14 melanoma = test system: M14 melanoma
SF-268 CNS = test system: SF-268 CNS
KM12 colon = test system: KM12 colon
HS 578T breast = test system: HS 578T breast
COLO 205 colon = test system: COLO 205 colon
HCT-116 colon = test system: HCT-116 colon
OVCAR-8 ovarian = test system: OVCAR-8 ovarian
MALME-3M melanoma = test system: MALME-3M melanoma
RXF 393 renal = test system: RXF 393 renal
MDA-MB-231 breast = test system: MDA-MB-231 breast
MDA-MB-468 breast = test system: MDA-MB-468 breast
SW-620 colon = test system: SW-620 colon
SF-295 CNS = test system: SF-295 CNS
NCI-H522 lung = test system: NCI-H522 lung
786-0 renal = test system: 786-0 renal
BT-549 breast = test system: BT-549 breast
CCRF-CEM leukemia = test system: CCRF-CEM leukemia
NCI-H460 NSCLC = test system: NCI-H460 NSCLC
TK-10 renal = test system: TK-10 renal
T-47D breast = test system: T-47D breast
U251 glioblastoma = test system: U251 glioblastoma
HT29 colon = test system: HT29 colon
NCI-H23 lung = test system: NCI-H23 lung
UACC-257 melanoma = test system: UACC-257 melanoma
UO-31 renal = test system: UO-31 renal
NCI-H322M lung = test system: NCI-H322M lung
EKVX NSCLC = test system: EKVX NSCLC
RPMI-8226 leukemia = test system: RPMI-8226 leukemia
MOLT-4 leukemia = test system: MOLT-4 leukemia
A498 renal = test system: A498 renal
HOP-62 NSCLC = test system: HOP-62 NSCLC
ACHN renal = test system: ACHN renal
HOP-92 NSCLC = test system: HOP-92 NSCLC
A549 NSCLC = test system: A549 NSCLC
DU-145 prostate = test system: DU-145 prostate
CAKI-1 renal = test system: CAKI-1 renal
SF-539 CNS = test system: SF-539 CNS
HCT-15 colon = test system: HCT-15 colon

O=C1NC(=O)C(c2cnc3ccccn23)=C1c1cn2c3c(cc(F)cc13)CN(C(=O)N1CCCCC1)CC2
GI50 (HL-60(TB) leukemia): 0.464 µM
TGI (HL-60(TB) leukemia): 2.72 µM
GI50 (OVCAR-5 ovarian): 23 µM
TGI (OVCAR-5 ovarian): 55.3 µM
GI50 (LOX IMVI melanoma): 0.77 µM
TGI (LOX IMVI melanoma): 9.29 µM
GI50 (SNB-19 CNS): 1.34 µM
TGI (SNB-19 CNS): 37.9 µM
GI50 (HCC-2998 colon): 0.128 µM
TGI (HCC-2998 colon): 0.773 µM
GI50 (MDA-MB-435 melanoma): 14.8 µM
TGI (MDA-MB-435 melanoma): 40.4 µM
GI50 (SK-MEL-5 melanoma): 4.08 µM
TGI (SK-MEL-5 melanoma): 15.4 µM
GI50 (UACC-62 melanoma): 0.513 µM
TGI (UACC-62 melanoma): 3.74 µM
GI50 (OVCAR-4 ovarian): 11.4 µM
TGI (OVCAR-4 ovarian): 32 µM
GI50 (NCI/ADR-RES ovarian): 5.91 µM
TGI (NCI/ADR-RES ovarian): 21.2 µM
GI50 (K-562 leukemia): < 0.01 µM
TGI (K-562 leukemia): 19.1 µM
GI50 (NCI-H226 lung): 1.84 µM
TGI (NCI-H226 lung): 11.4 µM
GI50 (SK-MEL-28 melanoma): 15.2 µM
TGI (SK-MEL-28 melanoma): 29.2 µM
GI50 (SN12C renal): 10.7 µM
TGI (SN12C renal): 38.9 µM
GI50 (PC-3 prostate): 2.17 µM
TGI (PC-3 prostate): 18.8 µM
GI50 (MCF7 breast): < 0.01 µM
TGI (MCF7 breast): 17.1 µM
GI50 (IGROV1 ovarian): 2.73 µM
TGI (IGROV1 ovarian): 22.2 µM
GI50 (SNB-75 CNS): < 0.01 µM
TGI (SNB-75 CNS): 14.4 µM
GI50 (M14 melanoma): 2.18 µM
TGI (M14 melanoma): 12 µM
GI50 (SF-268 CNS): 0.138 µM
TGI (SF-268 CNS): 0.491 µM
GI50 (KM12 colon): 4.89 µM
TGI (KM12 colon): 21.6 µM
GI50 (HS 578T breast): < 0.01 µM
GI50 (COLO 205 colon): 12.7 µM
TGI (COLO 205 colon): 26 µM
GI50 (HCT-116 colon): 1.12 µM
TGI (HCT-116 colon): 28.4 µM
GI50 (OVCAR-8 ovarian): 0.833 µM
TGI (OVCAR-8 ovarian): 14.4 µM
GI50 (MALME-3M melanoma): 11.1 µM
TGI (MALME-3M melanoma): 24 µM
GI50 (RXF 393 renal): < 0.01 µM
TGI (RXF 393 renal): 0.362 µM
GI50 (MDA-MB-231 breast): 16.3 µM
TGI (MDA-MB-231 breast): 54.9 µM
GI50 (MDA-MB-468 breast): 0.0283 µM
TGI (MDA-MB-468 breast): 0.116 µM
GI50 (SW-620 colon): 0.379 µM
TGI (SW-620 colon): 15 µM
GI50 (SF-295 CNS): 0.0175 µM
TGI (SF-295 CNS): 0.735 µM
GI50 (NCI-H522 lung): 13.5 µM
TGI (NCI-H522 lung): 26.7 µM
GI50 ([…]-0 renal): 0.0779 µM
TGI (786-0 renal): 12.4 µM
GI50 (BT-549 breast): < 0.01 µM
TGI (BT-549 breast): 18.6 µM
GI50 (CCRF-CEM leukemia): < 0.01 µM
TGI (CCRF-CEM leukemia): 0.245 µM
GI50 (NCI-H460 NSCLC): 0.701 µM
TGI (NCI-H460 NSCLC): 3.17 µM
GI50 (TK-10 renal): 0.0598 µM
TGI (TK-10 renal): 43.7 µM
GI50 (T-47D breast): 12.7 µM
TGI (T-47D breast): 28 µM
GI50 (U251 glioblastoma): 0.0303 µM
TGI (U251 glioblastoma): 0.332 µM
GI50 (HT29 colon): 10.3 µM
TGI (HT29 colon): 24.5 µM
GI50 (NCI-H23 lung): 11 µM
TGI (NCI-H23 lung): 25.3 µM
GI50 (UACC-257 melanoma): 18.6 µM
TGI (UACC-257 melanoma): 33.7 µM
GI50 (UO-31 renal): < 0.01 µM
TGI (UO-31 renal): 0.0398 µM
GI50 (NCI-H322M lung): 7.72 µM
TGI (NCI-H322M lung): 29.2 µM
GI50 (EKVX NSCLC): 11.7 µM
TGI (EKVX NSCLC): 26.2 µM
GI50 (RPMI-8226 leukemia): 0.901 µM
TGI (RPMI-8226 leukemia): 20.7 µM
GI50 (MOLT-4 leukemia): < 0.01 µM
TGI (MOLT-4 leukemia): 0.0107 µM
GI50 (A498 renal): 0.0156 µM
TGI (A498 renal): 13.2 µM
GI50 (HOP-62 NSCLC): 0.172 µM
TGI (HOP-62 NSCLC): 2.58 µM
GI50 (ACHN renal): 0.743 µM
TGI (ACHN renal): 11.3 µM
GI50 (HOP-92 NSCLC): 1.32 µM
TGI (HOP-92 NSCLC): > 100 µM
GI50 (A549 NSCLC): 2.36 µM
TGI (A549 NSCLC): 27.8 µM
GI50 (DU-145 prostate): 2.18 µM
TGI (DU-145 prostate): 8.62 µM
GI50 (CAKI-1 renal): 0.259 µM
TGI (CAKI-1 renal): 51.4 µM
GI50 (SF-539 CNS): < 0.01 µM
TGI (SF-539 CNS): 12.7 µM
GI50 (HCT-15 colon): 12.4 µM
TGI (HCT-15 colon): 34.1 µM
